Tests used:
Assay type in all cases: in vivo
[1] = test system: Taraxacum officinale; test: Example 1: adjuvants alone, visual % damage, pots in glasshouse
Method: (§1) The effect of different adjuvants (see Table 1 below) on the growth of broadleaf weed and grass species was investigated and compared to untreated (water only) control weeds.
(§2) Plates, each with 48 pots measuring 2.7 cm diameter and 5 cm deep, were filled with TKS1 growing media (Floragard, Germany). Seeds of Taraxacum officinale, Stellaria media or Poa annua were sown on the surface (10 to 20 per pot). Plants were grown in glasshouse at a temperature of 18 to 20° C. and at 60% relative humidity.
(§3) Plants were treated 15 (Stellaria, Poa) and 34 (Taraxacum) days after sowing with 60 μl of a 1.25, 2.5, 5 and 10% (w/v) solution of adjuvant using a hand airbrush.
(§4) Visual assessment of the percentage damage to the plant was carried out 1 day and 6 days from application.
(§5) Damage was assessed as wilting, desiccation or any other kind of visual injury in comparison to the untreated control (water only).

[2] = test system: Poa annua; test: as above
Method: as §1, §2, §3, §4, §5

[3] = test system: Stellaria media; test: as above
Method: as §1, §2, §3, §4, §5

[4] = test system: broadleaf weeds and grasses; test: Example 1: overall statement on adjuvants alone; settings: 1 and 6 days after treatment, adjuvant alone
Method: as §1, §2, §3, §4, §5

[5] = test system: Veronica persica; test: Example 2: alcohol ethoxylate adjuvants without glyphosate, visual % damage, tracksprayer 300 l/ha
Description: (§6) The effect of different types of alcohol ethoxylate (branched—Genapol X-series, and unbranched—Genapol O-series, differing degrees of ethoxylation, see Table 3 below for more details), on unwanted vegetation (broadleaf weed and grass species), in the absence of glyphosate, was investigated and compared to untreated (water only) control weeds.
(§7) Troughs (measuring 16 cm by 13 cm by 5 cm) were filled with local field soil. Seeds of Veronica persica, Stellaria media, Trifolium repens and Poa annua were sown 24 days before application of test samples. Plants were grown in the glasshouse at 18 to 20° C. and 60% relative humidity. Application of alcohol ethoxylate test samples was carried out using a tracksprayer, spraying at a rate of 300 l/ha. Plants were kept in glasshouse and visual assessment of the estimated percentage damage to the plant was carried out 1, 7, and 14 days from application.
as §5

[6] = test system: Poa annua; test: as above
Description: as §6, §7, §5

[7] = test system: Trifolium repens; test: as above
Description: as §6, §7, §5

[8] = test system: Stellaria media; test: as above
Description: as §6, §7, §5

Substance: Iso-tridecyl alcohol polyglycol ether with 15 Moles of ethoxylation [GenapolX-150]
- avg % damage 1 DAA Taraxacum officinale ([1]; adjuvant 1.25% w/v): 10%
- avg % damage 6 DAA Taraxacum officinale ([1]; adjuvant 1.25% w/v): 5%
- avg % damage 1 DAA Taraxacum officinale ([1]; adjuvant 2.5% w/v): 10%
- avg % damage 6 DAA Taraxacum officinale ([1]; adjuvant 2.5% w/v): 0%
- avg % damage 1 DAA Taraxacum officinale ([1]; adjuvant 5% w/v): 20%
- avg % damage 6 DAA Taraxacum officinale ([1]; adjuvant 5% w/v): 10%
- avg % damage 1 DAA Taraxacum officinale ([1]; adjuvant 10% w/v): 10%
- avg % damage 6 DAA Taraxacum officinale ([1]; adjuvant 10% w/v): 0%
- avg % damage 1 DAA Poa annua ([2]; adjuvant 1.25% w/v): 0%
- avg % damage 6 DAA Poa annua ([2]; adjuvant 1.25% w/v): 10%
- avg % damage 1 DAA Poa annua ([2]; adjuvant 2.5% w/v): 0%
- avg % damage 6 DAA Poa annua ([2]; adjuvant 2.5% w/v): 5%
- avg % damage 1 DAA Poa annua ([2]; adjuvant 5% w/v): 0%
- avg % damage 6 DAA Poa annua ([2]; adjuvant 5% w/v): 10%
- avg % damage 1 DAA Poa annua ([2]; adjuvant 10% w/v): 0%
- avg % damage 6 DAA Poa annua ([2]; adjuvant 10% w/v): 10%
- avg % damage 1 DAA Stellaria media ([3]; adjuvant 1.25% w/v): 0%
- avg % damage 6 DAA Stellaria media ([3]; adjuvant 1.25% w/v): 10%
- avg % damage 1 DAA Stellaria media ([3]; adjuvant 2.5% w/v): 0%
- avg % damage 6 DAA Stellaria media ([3]; adjuvant 2.5% w/v): 10%
- avg % damage 1 DAA Stellaria media ([3]; adjuvant 5% w/v): 15%
- avg % damage 6 DAA Stellaria media ([3]; adjuvant 5% w/v): 15%
- avg % damage 1 DAA Stellaria media ([3]; adjuvant 10% w/v): 25%
- avg % damage 6 DAA Stellaria media ([3]; adjuvant 10% w/v): 25%
- visual symptoms of phytotoxicity [4]: comparatively high level of visual symptoms of phytoxicity

Substance: Oleyl alcohol polyglycol ether with 5 moles of ethoxylation [GenapolO050]
- avg % damage 1 DAA Taraxacum officinale ([1]; adjuvant 1.25% w/v): 10%
- avg % damage 6 DAA Taraxacum officinale ([1]; adjuvant 1.25% w/v): 0%
- avg % damage 1 DAA Taraxacum officinale ([1]; adjuvant 2.5% w/v): 10%
- avg % damage 6 DAA Taraxacum officinale ([1]; adjuvant 2.5% w/v): 3%
- avg % damage 1 DAA Taraxacum officinale ([1]; adjuvant 5% w/v): 10%
- avg % damage 6 DAA Taraxacum officinale ([1]; adjuvant 5% w/v): 20%
- avg % damage 1 DAA Taraxacum officinale ([1]; adjuvant 10% w/v): 10%
- avg % damage 6 DAA Taraxacum officinale ([1]; adjuvant 10% w/v): 0%
- avg % damage 1 DAA Poa annua ([2]; adjuvant 1.25% w/v): 0%
- avg % damage 6 DAA Poa annua ([2]; adjuvant 1.25% w/v): 5%
- avg % damage 1 DAA Poa annua ([2]; adjuvant 2.5% w/v): 0%
- avg % damage 6 DAA Poa annua ([2]; adjuvant 2.5% w/v): 5%
- avg % damage 1 DAA Poa annua ([2]; adjuvant 5% w/v): 0%
- avg % damage 6 DAA Poa annua ([2]; adjuvant 5% w/v): 10%
- avg % damage 1 DAA Poa annua ([2]; adjuvant 10% w/v): 0%
- avg % damage 6 DAA Poa annua ([2]; adjuvant 10% w/v): 10%
- avg % damage 1 DAA Stellaria media ([3]; adjuvant 1.25% w/v): 0%
- avg % damage 6 DAA Stellaria media ([3]; adjuvant 1.25% w/v): 0%
- avg % damage 1 DAA Stellaria media ([3]; adjuvant 2.5% w/v): 10%
- avg % damage 6 DAA Stellaria media ([3]; adjuvant 2.5% w/v): 15%
- avg % damage 1 DAA Stellaria media ([3]; adjuvant 5% w/v): 15%
- avg % damage 6 DAA Stellaria media ([3]; adjuvant 5% w/v): 25%
- avg % damage 1 DAA Stellaria media ([3]; adjuvant 10% w/v): 30%
- avg % damage 6 DAA Stellaria media ([3]; adjuvant 10% w/v): 25%
- mean % damage 1 daa Veronica persica ([5]; adjuvant 1% w/v): 0%
- mean % damage 7 daa Veronica persica ([5]; adjuvant 1% w/v): 5%
- mean % damage 14 daa Veronica persica ([5]; adjuvant 1% w/v): 5%
- mean % damage 1 daa Veronica persica ([5]; adjuvant 1.5% w/v): 0%
- mean % damage 7 daa Veronica persica ([5]; adjuvant 1.5% w/v): 10%
- mean % damage 14 daa Veronica persica ([5]; adjuvant 1.5% w/v): 20%
- mean % damage 1 daa Veronica persica ([5]; adjuvant 2% w/v): 0%
- mean % damage 7 daa Veronica persica ([5]; adjuvant 2% w/v): 10%
- mean % damage 14 daa Veronica persica ([5]; adjuvant 2% w/v): 20%
- mean % damage 1 daa Veronica persica ([5]; adjuvant 2.5% w/v): 0%
- mean % damage 7 daa Veronica persica ([5]; adjuvant 2.5% w/v): 20%
- mean % damage 14 daa Veronica persica ([5]; adjuvant 2.5% w/v): 20%
- mean % damage 1 daa Poa annua ([6]; adjuvant 1% w/v): 0%
- mean % damage 7 daa Poa annua ([6]; adjuvant 1% w/v): 10%
- mean % damage 14 daa Poa annua ([6]; adjuvant 1% w/v): 0%
- mean % damage 1 daa Poa annua ([6]; adjuvant 1.5% w/v): 0%
- mean % damage 7 daa Poa annua ([6]; adjuvant 1.5% w/v): 5%
- mean % damage 14 daa Poa annua ([6]; adjuvant 1.5% w/v): 0%
- mean % damage 1 daa Poa annua ([6]; adjuvant 2% w/v): 0%
- mean % damage 7 daa Poa annua ([6]; adjuvant 2% w/v): 5%
- mean % damage 14 daa Poa annua ([6]; adjuvant 2% w/v): 5%
- mean % damage 1 daa Poa annua ([6]; adjuvant 2.5% w/v): 0%
- mean % damage 7 daa Poa annua ([6]; adjuvant 2.5% w/v): 5%
- mean % damage 14 daa Poa annua ([6]; adjuvant 2.5% w/v): 5%
- mean % damage 1 daa Trifolium repens ([7]; adjuvant 1% w/v): 0%
- mean % damage 7 daa Trifolium repens ([7]; adjuvant 1% w/v): 5%
- mean % damage 14 daa Trifolium repens ([7]; adjuvant 1% w/v): 0%
- mean % damage 1 daa Trifolium repens ([7]; adjuvant 1.5% w/v): 0%
- mean % damage 7 daa Trifolium repens ([7]; adjuvant 1.5% w/v): 5%
- mean % damage 14 daa Trifolium repens ([7]; adjuvant 1.5% w/v): 0%
- mean % damage 1 daa Trifolium repens ([7]; adjuvant 2% w/v): 0%
- mean % damage 7 daa Trifolium repens ([7]; adjuvant 2% w/v): 5%
- mean % damage 14 daa Trifolium repens ([7]; adjuvant 2% w/v): 0%
- mean % damage 1 daa Trifolium repens ([7]; adjuvant 2.5% w/v): 0%
- mean % damage 7 daa Trifolium repens ([7]; adjuvant 2.5% w/v): 5%
- mean % damage 14 daa Trifolium repens ([7]; adjuvant 2.5% w/v): 0%
- mean % damage 1 daa Stellaria media ([8]; adjuvant 1% w/v): 0%
- mean % damage 7 daa Stellaria media ([8]; adjuvant 1% w/v): 5%
- mean % damage 14 daa Stellaria media ([8]; adjuvant 1% w/v): 0%
- mean % damage 1 daa Stellaria media ([8]; adjuvant 1.5% w/v): 0%
- mean % damage 7 daa Stellaria media ([8]; adjuvant 1.5% w/v): 5%
- mean % damage 14 daa Stellaria media ([8]; adjuvant 1.5% w/v): 5%
- mean % damage 1 daa Stellaria media ([8]; adjuvant 2% w/v): 0%
- mean % damage 7 daa Stellaria media ([8]; adjuvant 2% w/v): 10%
- mean % damage 14 daa Stellaria media ([8]; adjuvant 2% w/v): 5%
- mean % damage 1 daa Stellaria media ([8]; adjuvant 2.5% w/v): 0%
- mean % damage 7 daa Stellaria media ([8]; adjuvant 2.5% w/v): 10%
- mean % damage 14 daa Stellaria media ([8]; adjuvant 2.5% w/v): 10%

Reference: patent publication US20130252816A1, “HERBICIDAL COMPOSITION AND USE THEREOF” (Syngenta Crop Protection LLC, priority 2010, published 2013)
